{
  "source": "ChEMBL document CHEMBL3992566",
  "about": "“Development and Biological Evaluation of a Photoactivatable Small Molecule Microtubule-Targeting Agent” (ACS Med Chem Lett, 2017)",
  "key": {"[1]": {"species": "Sus scrofa", "test": "Inhibition of porcine brain tubulin polymerization at 3 uM by fluorescence assay"}, "[2]": {"test": "Disruption of microtubule organization in human U251 cells assessed as changes in cell morphology at 5 uM after 24 hrs under dark condition by DAPI staining based immunofluorescence assay", "format": "ADME"}, "[3]": {"test": "Dark toxicity against human U251 cells assessed as reduction in cell viability after 72 hrs by Cell-Titer Blue assay", "format": "cell-based, U-251"}, "[4]": {"test": "Induction of apoptosis in patient-derived RN1 cells assessed as late apoptotic cells at 5 uM after 48 hrs under UV irradiation of 1800 mW for 30 secs by Annexin V staining based assay relative to control", "format": "functional, Homo sapiens"}, "[5]": {"test": "Induction of apoptosis in patient-derived RN1 cells at 5 uM after 48 hrs under dark condition by Annexin V staining based assay (reference value: 8.1%)", "format": "cell-based", "conditions": "human, rn1, 48 h"}, "[6]": {"test": "Dark toxicity against patient-derived RN1 cells assessed as reduction in cell viability after 72 hrs by Cell-Titer Blue assay", "format": "cell-based", "conditions": "human"}, "[7]": {"test": "Disruption of microtubule organization in human U251 cells at 5 uM after 24 hrs under dark condition by DAPI staining based immunofluorescence assay", "format": "ADME, cell-based"}, "[8]": {"test": "Induction of apoptosis in patient-derived RN1 cells assessed as live cells at 5 uM after 48 hrs under UV irradiation of 1800 mW for 30 secs by Annexin V staining based assay relative to control", "format": "functional, Homo sapiens"}, "[9]": {"test": "Effect on colchicine binding to porcine brain tubulin up to 60 uM after 90 mins under dark condition by fluorescence assay", "format": "ADME, Sus scrofa", "conditions": "pig, 1.5 h"}, "[10]": {"test": "Induction of apoptosis in patient-derived RN1 cells assessed as early apoptotic cells at 5 uM after 48 hrs under UV irradiation of 1800 mW for 30 secs by Annexin V staining based assay relative to control", "format": "functional, Homo sapiens"}, "[11]": {"test_system": "U-251", "test": "Phototoxicity against human U251 cells assessed as reduction in cell viability under UV irradiation of 1800 mW for 1 min measured after 72 hrs by Cell-Titer Blue assay", "format": "functional, cell-based", "conditions": "U-251, light or radiation study"}, "[12]": {"species": "Homo sapiens", "test": "Disruption of microtubule organization in human U251 cells assessed as cell rounding at 5 uM after 24 hrs under UV irradiation of 1800 mW for 5 mins by DAPI staining based immunofluorescence assay"}, "[13]": {"test": "Photoactivation of prodrug assessed as 4-(4-(2-fluoropyridin-3-yl)phenyl)-N-(4-hydroxyphenyl)butanamide release at 1 mM under UV irradiation of 5400 mW after 1 min by HPLC-MS analysis"}, "[14]": {"test": "Induction of apoptosis in patient-derived RN1 cells assessed as necrotic cells at 5 uM after 48 hrs under UV irradiation of 1800 mW for 30 secs by Annexin V staining based assay relative to control", "format": "functional, Homo sapiens"}, "[15]": {"species": "Homo sapiens", "test": "Disruption of microtubule organization in human U251 cells at 5 uM after 24 hrs under UV irradiation of 1800 mW for 5 mins by DAPI staining based immunofluorescence assay", "format": "cell-based"}, "[16]": {"species": "Sus scrofa", "test": "Inhibition of porcine brain tubulin polymerization at 50 uM under UV irradiation of 1800 mW for 5 mins by fluorescence assay"}, "[17]": {"test": "Phototoxicity against patient-derived RN1 cells assessed as reduction in cell viability under UV irradiation of 1800 mW for 30 secs measured after 72 hrs by Cell-Titer Blue assay", "format": "functional, cell-based", "conditions": "Homo sapiens, RN1, light or radiation study"}, "[18]": {"test": "Effect on kinetics of porcine brain tubulin polymerization at 50 uM under dark condition by fluorescence assay", "format": "ADME, Sus scrofa", "conditions": "pig"}, "[19]": {"test": "Photoactivation of prodrug assessed as decay time constant for 4-(4-(2-fluoropyridin-3-yl)phenyl)-N-(4-hydroxyphenyl)butanamide release at 1 mM under UV irradiation of 5400 mW after 1 min by HPLC-MS analysis"}, "[20]": {"test": "Photoactivation of prodrug assessed as time required to release maximum concentration of 4-(4-(2-fluoropyridin-3-yl)phenyl)-N-(4-hydroxyphenyl)butanamide at 1 mM under UV irradiation of 5400 mW by HPLC-MS analysis"}, "[21]": {"test_system": "U-251", "test": "Cytotoxicity against human U251 cells assessed as reduction in cell viability at >40 uM after 72 hrs by Cell-Titer Blue assay", "format": "functional, cell-based"}, "[22]": {"test_system": "U-251", "test": "Phototoxicity against human U251 cells assessed as reduction in cell viability up to 100 uM under UV irradiation of 1800 mW for 1 min measured after 72 hrs by Cell-Titer Blue assay", "format": "functional, cell-based"}, "[23]": {"test": "Drug metabolism in human U251 cells assessed as DMNB release up to 100 uM under UV irradiation of 1800 mW for 1 min measured after 72 hrs", "format": "ADME, cell-based", "conditions": "u-251, 72 h"}, "[24]": {"species": "Sus scrofa", "test": "Inhibition of colchicine binding to porcine brain tubulin up to 60 uM after 90 mins by fluorescence assay"}, "[25]": {"species": "Sus scrofa", "test": "Inhibition of colchicine binding to porcine brain tubulin after 90 mins by fluorescence assay"}, "[26]": {"test": "Cytotoxicity against patient-derived RN1 cells assessed as reduction in cell viability after 72 hrs by Cell-Titer Blue assay", "format": "functional, cell-based", "conditions": "Homo sapiens, RN1, 72 h"}, "[27]": {"test": "Induction of apoptosis in patient-derived RN1 cells at 5 uM after 48 hrs by Annexin V staining based assay (reference value: 8.1%)", "format": "functional, Homo sapiens"}, "[28]": {"species": "Homo sapiens", "test": "Disruption of microtubule organization in human U251 cells at 5 uM after 24 hrs by DAPI staining based immunofluorescence assay", "format": "cell-based"}, "[29]": {"test_system": "U-251", "test": "Cytotoxicity against human U251 cells assessed as reduction in cell viability after 72 hrs by Cell-Titer Blue assay", "format": "functional, cell-based", "conditions": "U-251, 72 h"}, "[30]": {"test": "Photostability of the compound at 1 mM under UV irradiation of 5400 mW after 20 mins by HPLC-MS analysis"}, "[31]": {"species": "Sus scrofa", "test": "Inhibition of porcine brain tubulin polymerization at 50 uM by fluorescence assay"}, "[32]": {"species": "Homo sapiens", "test": "Disruption of microtubule organization in human U251 cells assessed as changes in cell morphology at 5 uM after 24 hrs by DAPI staining based immunofluorescence assay"}},
  "note": "Active and inactive are the calls of the source. No cut-off for these calls is given here.",
  "data": [
    {"smiles": "CC(=O)O[C@H]1C(=O)[C@@]2(C)[C@H]([C@H](OC(=O)c3ccccc3)[C@]3(O)C[C@H](OC(=O)[C@H](O)[C@@H](NC(=O)c4ccccc4)c4ccccc4)C(C)=C1C3(C)C)[C@]1(OC(C)=O)CO[C@@H]1C[C@@H]2O", "values": [
      {"measurement": "inhibition", "setting": "[1]", "result": "inactive"}
    ]},
    {"smiles": "COc1cc(COc2ccc(NC(=O)CCCc3ccc(-c4cccnc4F)cc3)cc2)c([N+](=O)[O-])cc1OC", "values": [
      {"measurement": "Activity", "setting": "[2]", "result": "Not Active"},
      {"measurement": "EC50 at 72 h", "setting": "[3]", "result": 72000, "unit": "nM"},
      {"measurement": "Activity", "setting": "[4]", "result": 41.3, "unit": "%"},
      {"measurement": "Activity", "setting": "[5]", "result": 12.6, "unit": "%"},
      {"measurement": "EC50 at 72 h", "setting": "[6]", "result": 37400, "unit": "nM"},
      {"measurement": "Activity", "setting": "[7]", "result": "Not Active"},
      {"measurement": "Activity", "setting": "[8]", "result": 36.95, "unit": "%"},
      {"measurement": "Activity", "setting": "[9]", "result": "Not Active"},
      {"measurement": "Activity", "setting": "[10]", "result": 20.75, "unit": "%"},
      {"measurement": "EC50", "setting": "[11]", "result": 2100, "unit": "nM"},
      {"measurement": "Activity", "setting": "[12]", "result": "Active"},
      {"measurement": "Drug metabolism", "setting": "[13]", "result": 80, "unit": "%"},
      {"measurement": "Activity", "setting": "[14]", "result": 0.5, "unit": "%"},
      {"measurement": "Activity", "setting": "[15]", "result": "Active"},
      {"measurement": "inhibition", "setting": "[16]", "result": "Active"},
      {"measurement": "EC50", "setting": "[17]", "result": 1200, "unit": "nM"},
      {"measurement": "Activity", "setting": "[18]", "result": "Not Active"},
      {"measurement": "TIME", "setting": "[19]", "result": 0.0101, "unit": "h"},
      {"measurement": "TIME", "setting": "[20]", "result": "> 0.0333", "unit": "h"}
    ]},
    {"smiles": "O=C(CCCc1ccc(-c2cccnc2F)cc1)Nc1ccc(OCc2ccccc2)cc1", "values": [
      {"measurement": "Activity", "setting": "[21]", "result": "inactive"}
    ]},
    {"smiles": "COc1cc(COC(=O)C(C)NC(=O)OC(C)(C)C)c([N+](=O)[O-])cc1OC", "note": "(stereo unspecified)", "values": [
      {"measurement": "Activity", "setting": "[22]", "result": "inactive"},
      {"measurement": "Drug metabolism", "setting": "[23]", "result": "Metabolite_Detected"}
    ]},
    {"smiles": "COC(=O)Nc1nc2cc(C(=O)c3cccs3)ccc2[nH]1", "values": [
      {"measurement": "inhibition", "setting": "[24]", "result": "Active"}
    ]},
    {"smiles": "CC[C@]1(O)C[C@@H]2CN(CCc3c([nH]c4ccccc34)[C@@](C(=O)OC)(c3cc4c(cc3OC)N(C)[C@H]3[C@@](O)(C(=O)OC)[C@H](OC(C)=O)[C@]5(CC)C=CCN6CC[C@]43[C@@H]65)C2)C1", "values": [
      {"measurement": "inhibition", "setting": "[1]", "result": "Active"},
      {"measurement": "inhibition", "setting": "[24]", "result": "inactive"}
    ]},
    {"smiles": "O=C(CCCc1ccc(-c2cccnc2F)cc1)Nc1ccc(O)cc1", "values": [
      {"measurement": "inhibition", "setting": "[25]", "result": "Dose-dependent effect"},
      {"measurement": "EC50", "setting": "[26]", "result": 300, "unit": "nM"},
      {"measurement": "Activity", "setting": "[27]", "result": 47.8, "unit": "%"},
      {"measurement": "Activity", "setting": "[28]", "result": "Active"},
      {"measurement": "EC50", "setting": "[29]", "result": 1300, "unit": "nM"},
      {"measurement": "EC50", "setting": "[11]", "result": 1400, "unit": "nM"},
      {"measurement": "Stability", "setting": "[30]", "result": "Stable"},
      {"measurement": "inhibition", "setting": "[31]", "result": "Active"},
      {"measurement": "Activity", "setting": "[32]", "result": "Active"},
      {"measurement": "EC50", "setting": "[17]", "result": 700, "unit": "nM"}
    ]}
  ]
}
